Tests used:
C57b1/6J Mice = assay: GPR120 C57bl6 Mouse IPGTT; assay type: in vivo; set-up: C57 IPGTT 10mg/kg: unit not given here; settings: for C57 IPGTT 3mg/kg: 3mg/kg dosed 30 minutes prior to glucose IP 1.5g/kg; for C57 IPGTT 10mg/kg: 10mg/kg dosed 30 minutes prior to glucose IP 1.5g/kg
Method: Male, C57b1/6J Mice were ordered in at 8 weeks of age from Jackson Labs. Individual mice weighed anywhere in the range of 25-30 grams on study day. The mice were fasted, with removal of food occurring at 7am on the morning of the study. Animals were moved into the room at 10:00am, to give them time to acclimate. Glucose (insulin syringes) was drawn up either the night before or the morning of the study. Glucose was dosed (IP) at 1.5g/kg at 7.5ml/kg (20% glucose straight TEKNOVA, 250ml sterile bottle w/ catalogue number G0525). Test compounds were kept spinning and were only drawn into the syringes prior to study commencement. Animals were bled via tail snip to determine basal glucose levels prior to dosing of treatments. An Ascensia BREEZE Blood Glucose Monitoring System by Bayer (using unique 10-test disks) was used for determining glucose levels. The bleeds started at approximately 12:45pm and dosing started, at 1-minute intervals, immediately after. All groups were dosed 30 minutes prior to glucose administration at a dose volume of 10ml/kg (the dose volume was calculated separately for each individual animal). Thirty minutes after the first dose animals were bled again for a second baseline, or T=0, and immediately dosed with glucose via an i.p. injection. The exact dose volume for glucose was also calculated separately for each individual animal. Glucose measurements were taken at -30min prior to compound dose, at t=0 (immediately prior to glucose dose), and at 15, 30, 45, 60, 90min post glucose dose.
Glucose values were entered into an Excel sheet and graphed in GraphPad Prism. The following were calculated from Prism: Change from -30 to 0 BSLN Glucose, Raw Glucose AUC -30 to 90min, Delta Glucose AUC -30 to 90min, Raw Glucose AUC 0 to 90min, Delta Glucose AUC 0 to 90min.
Representative compounds of the present disclosure were tested according to the procedures as described in Biological Example 4, above with results as listed in Table 3, below. […] Where a compound was tested more than once, each result is listed individually. Table 3: GPR120 C57bl6 Mouse IPGTT OGTT Results

Human GPR120 short form [1] = target: T1, Human GPR120 short form (Homo sapiens, UniProt Q5NUL3); assay: Human GPR120 Calcium Flux Assay, Procedure Calcium A; assay type: cell-based; settings: HEK-293 cells expressing Human GPR120 short form, FLIPR, 2500 cells / well; read-out: GPR120 Ca^2+ Assay A EC50
T1 construct: expressed in transfected cells
T1 sequence (Q5NUL3 1-361): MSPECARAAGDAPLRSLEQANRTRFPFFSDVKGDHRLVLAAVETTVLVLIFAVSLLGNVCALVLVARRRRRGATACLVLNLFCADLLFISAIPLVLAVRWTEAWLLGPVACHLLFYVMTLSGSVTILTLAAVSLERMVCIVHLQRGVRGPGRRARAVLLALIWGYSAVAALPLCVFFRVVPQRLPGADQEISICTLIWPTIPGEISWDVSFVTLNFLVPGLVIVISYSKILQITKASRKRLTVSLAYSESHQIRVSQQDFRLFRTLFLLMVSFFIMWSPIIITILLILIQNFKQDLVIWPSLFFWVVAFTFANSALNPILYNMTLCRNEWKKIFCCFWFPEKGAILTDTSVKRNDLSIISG
Source text: (§1) This in vitro assay serves to assess test compound agonist activity against the short splice variant (SVS with Accession number NM_001195755.1 confirmed by sequencing data) of the GPR120 receptor. The Human Short splice variant #2 (NM_001195755.1) is missing an in-frame coding exon compared to variant 1 (the Human Long splice variant NM_181745.3), resulting in a shorter isoform (GPR120-S) lacking a 16 aa protein segment compared to isoform GPR120-L. The assay platform utilizes HEK-293 cells stably transfected to express the Human GPR120 short form. These cells are first loaded with the Ca^+2 sensitive dye, Fluo-4 NW. Upon stimulation, intracellular released Ca^+2 can bind to the dye and alter its fluorescence intensity. This increase in fluorescence signal, and thus the flux in intracellular [Ca^2+], is detected and quantitated by fluorescence imaging using a FLIPR reader. The effect of the agonist is measured as a function of concentration and used to calculate an EC50 based upon a response curve.
In this procedure 2500 cells / well were employed.
(§2) A Human GPR120 clone (Genbank accession number NM _001195755.1) was placed into the pcDNA3.1 mammalian expression vector carrying the neomycin resistance gene. A stable mammalian cell was generated by placing the above clone into a HEK293 background. Clonal cells responding to long chain fatty acids had expression levels of GPR120 confirmed by RT-qPCR. Human HEK-GPR120 cells were cultured in Dulbecco's Modified Eagle's Medium (DMEM)/F12 medium supplemented with 10% fetal bovine serum (FBS), 1% L-Glutamine and 1% penicillin/streptomycin and 0.5 mg/ml G-418. Cells were split 2 times a week to keep the cells in the log-phase growth.
(§3) In preparation for the assay, HEK cells stably transfected with Human GPR120 (2.5K cells per well in 25uL growth medium) were seeded into 384-well plates and then incubated overnight (37°C, 5% CO2). The next day, the media was changed to 20 µL assay buffer and the cell starved for 1h at 37°C. […]
(§4) The assay was performed on a FLIPR plate reader using the following parameters. Baseline was read for 10 seconds at 1 sec intervals. The program was set to transfer 10µL of ligand from compound plate to cell plate after baseline reading. […] After compound addition, each well was read for 300 sec, with measurements collected at 1 sec intervals.
(§5) The kinetic data from the FLIPR was based upon a 5 minute window for data collection. The fluorescence of each sample well was used for individual calculations of a normalized RFU value, which was defined as maximum response minus the minimum response. The normalized fluorescence reading (RFU) was calculated as follows: RFU = Fmax−Fmin [formula] […]

Human GPR120 short form [2] = target: T1, Human GPR120 short form; assay: Human GPR120 Calcium Flux Assay, Procedure Calcium B; assay type: cell-based; settings: HEK-293 cells expressing Human GPR120 short form, FLIPR, 4200 cells/well; read-out: GPR120 Ca^2+ Assay B EC50
Source text: as §1
In this procedure 4200 cells/well were employed.
as §2, §3, §4, §5

SMILES | C57 IPGTT 3mg/kg (C57b1/6J Mice) | C57 IPGTT 10mg/kg (C57b1/6J Mice) | further results
CCc1ccc(-c2nsc(C(F)(F)F)c2COc2c(F)cc(CCC(=O)O)cc2F)cc1 [Cpd 70, 3-(4-[[3-(4-ethylphenyl)-5-(trifluoromethyl)-1,2-thiazol-4-yl]methoxy]-3,5-difluorophenyl)propanoic acid] | – | – | C57 IPGTT 30mg/kg (C57b1/6J Mice; 30mg/kg dosed 30 minutes prior to glucose IP 1.5g/kg): -88
O=C(O)CCc1cc(F)c(OCc2c(C3CCCC3)nsc2C(F)(F)F)c(F)c1 [Cpd 71, 3-(4-[[3-cyclopentyl-5-(trifluoromethyl)-1,2-thiazol-4-yl]methoxy]-3,5-difluorophenyl)propanoic acid] | -14 | – | –
O=C(O)CCc1cc(F)c(OCc2c(-c3ccc(Cl)cc3)nsc2C(F)(F)F)c(F)c1 [Cpd 79, 3-(4-[[3-(4-chlorophenyl)-5-(trifluoromethyl)-1,2-thiazol-4-yl]methoxy]-3,5-difluorophenyl)propanoic acid] | – | -60 | –
CCc1ccc(-c2snc(Cl)c2COc2ccc(CCC(=O)O)c(C)c2C)cc1 [Cpd 85, 3-(4-[[3-chloro-5-(4-ethylphenyl)-1,2-thiazol-4-yl]methoxy]-2,3-dimethylphenyl)propanoic acid] | -29 | -48 | –
OCCCc1cc(F)c(OCc2c(-c3ccc(Cl)cc3)nsc2C(F)(F)F)c(F)c1 [Cpd 100, 3-(4-[[3-(4-chlorophenyl)-5-(trifluoromethyl)-1,2-thiazol-4-yl]methoxy]-3,5-difluorophenyl)propan-1-ol] | – | -42 | –
O=C(O)CCc1ccc(OCc2c(-c3ccc(Cl)cc3)nsc2C(F)(F)F)c(F)c1F [Cpd 106, 3-(4-[[3-(4-chlorophenyl)-5-(trifluoromethyl)-1,2-thiazol-4-yl]methoxy]-2,3-difluorophenyl)propanoic acid] | – | -34 | –
O=C(O)CCc1cc(F)c(OCc2c(-c3ccc(F)c(F)c3)nsc2C(F)(F)F)c(F)c1 [Cpd 129, 3-(4-((3-(3,4-difluorophenyl)-5-(trifluoromethyl)isothiazol-4-yl)methoxy)-3,5-difluorophenyl)propanoic acid] | – | – | EC50 (Human GPR120 short form [1]): 125 nM
Cc1c(CCC(=O)O)ccc(OCc2c(-c3ccc(Cl)cc3)nsc2C(F)(F)F)c1C [Cpd 142, 3-(4-((3-(4-chlorophenyl)-5-(trifluoromethyl)isothiazol-4-yl)methoxy)-2,3-dimethylphenyl)propanoic acid] | -34 | -61 | –
Cc1ccccc1-c1snc(Cl)c1COc1cc(C(F)(F)F)c(CCC(=O)O)cc1F [Cpd 246, 3-(4-((3-chloro-5-(o-tolyl)isothiazol4-yl)methoxy)-5-fluoro-2-(trifluoromethyl)phenyl)propanoic acid] | – | – | EC50 (Human GPR120 short form [1]): 2350 nM
COC(=O)CCc1cc(F)c(OCc2c(-c3ccc(Cl)cc3F)nsc2C(F)(F)F)c(F)c1 [Cpd 263, Methyl 3-(4-{[3-(4-chloro-2-fluorophenyl)-5-(trifluoromethyl)isothiazol-4-yl]methoxy}-3,5-difluorophenyl)propanoate] | – | – | EC50 (Human GPR120 short form [2]): > 5000 nM

— patent publication EP3409671B1, “ISOTHIAZOLE DERIVATIVES AS GPR120 AGONISTS FOR THE TREATMENT OF TYPE II DIABETES” (Janssen Pharmaceutica NV, priority 2014, dated 2015)
